From PubChem BioAssay AID1963976 (Molecular Pharmacology Branch, DTP, NCI, 2024)

System: 435261-313-R-J1-PDC tumor spheroid viability
Assay: Anticancer human tumor 435261-313-R-J1-PDC patient-derived colon adenocarcinoma cell line growth inhibition [PI3K]
Conditions: spheroids with HUVEC and MSC; for IC50: curve of first compound; for viability, T/C: stronger effect = lower value
Procedure, shortened: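 Tumor cells grown as multi-cell spheroids with HUVEC endothelial cells and MSC fibroblast-like stroma were treated with targeted agents combined with inavolisib, alpelisib, duvelisib or copanlisib. Doses fell in half-log steps from near clinical Cmax, else from 10 microM. Viability was measured.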

[1] = second compound 0.0316 µM, first compound 0.0316 µM
[2] = second compound 0.0316 µM, first compound 0.1 µM
[3] = second compound 0.0316 µM, first compound 0.316 µM
[4] = second compound 0.0316 µM, first compound 1 µM
[5] = second compound 0.0316 µM, first compound 3.16 µM
[6] = second compound 0.0316 µM, first compound 10 µM
[7] = second compound 0.1 µM, first compound 0.0316 µM
[8] = second compound 0.1 µM, first compound 0.1 µM
[9] = second compound 0.1 µM, first compound 0.316 µM
[10] = second compound 0.1 µM, first compound 1 µM
[11] = second compound 0.1 µM, first compound 3.16 µM
[12] = second compound 0.1 µM, first compound 10 µM
[13] = second compound 0.316 µM, first compound 0.0316 µM
[14] = second compound 0.316 µM, first compound 0.1 µM
[15] = second compound 0.316 µM, first compound 0.316 µM
[16] = second compound 0.316 µM, first compound 1 µM
[17] = second compound 0.316 µM, first compound 3.16 µM
[18] = second compound 0.316 µM, first compound 10 µM
[19] = second compound 1 µM, first compound 0.0316 µM
[20] = second compound 1 µM, first compound 0.1 µM
[21] = second compound 1 µM, first compound 0.316 µM
[22] = second compound 1 µM, first compound 1 µM
[23] = second compound 1 µM, first compound 3.16 µM
[24] = second compound 1 µM, first compound 10 µM
[25] = second compound 3.16 µM, first compound 0.0316 µM
[26] = second compound 3.16 µM, first compound 0.1 µM
[27] = second compound 3.16 µM, first compound 0.316 µM
[28] = second compound 3.16 µM, first compound 1 µM
[29] = second compound 3.16 µM, first compound 3.16 µM
[30] = second compound 3.16 µM, first compound 10 µM
[31] = second compound 10 µM, first compound 0.0316 µM
[32] = second compound 10 µM, first compound 0.1 µM
[33] = second compound 10 µM, first compound 0.316 µM
[34] = second compound 10 µM, first compound 1 µM
[35] = second compound 10 µM, first compound 3.16 µM
[36] = second compound 10 µM, first compound 10 µM
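Also: spheroids exposed to compounds for 7 days.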

SMILES: C[C@@H](NC(=O)c1ncnc(N)c1Cl)c1ncc(C(=O)Nc2cc(C(F)(F)F)c(Cl)cn2)s1 + CC(Nc1ncnc2nc[nH]c12)c1cc2cccc(Cl)c2c(=O)n1-c1ccccc1
- IC50 (second compound 0.0316 µM): > 10000 nM
- IC50 (second compound 0.1 µM): > 10000 nM
- IC50 (second compound 0.316 µM): > 10000 nM
- IC50 (second compound 1 µM): > 10000 nM
- IC50 (second compound 3.16 µM): > 10000 nM
- IC50 (second compound 10 µM): 3520 nM
- viability, T/C [1]: 158%
- viability, T/C [2]: 182%
- viability, T/C [3]: 124%
- viability, T/C [4]: 145%
- viability, T/C [5]: 153%
- viability, T/C [6]: 118%
- viability, T/C [7]: 128%
- viability, T/C [8]: 172%
- viability, T/C [9]: 153%
- viability, T/C [10]: 144%
- viability, T/C [11]: 147%
- viability, T/C [12]: 104%
- viability, T/C [13]: 112%
- viability, T/C [14]: 150%
- viability, T/C [15]: 135%
- viability, T/C [16]: 145%
- viability, T/C [17]: 150%
- viability, T/C [18]: 64.8%
- viability, T/C [19]: 146%
- viability, T/C [20]: 146%
- viability, T/C [21]: 147%
- viability, T/C [22]: 175%
- viability, T/C [23]: 144%
- viability, T/C [24]: 96.1%
- viability, T/C [25]: 119%
- viability, T/C [26]: 141%
- viability, T/C [27]: 111%
- viability, T/C [28]: 148%
- viability, T/C [29]: 91.4%
- viability, T/C [30]: 44.6%
- viability, T/C [31]: 72.8%
- viability, T/C [32]: 131%
- viability, T/C [33]: 88.7%
- viability, T/C [34]: 93.2%
- viability, T/C [35]: 51%
- viability, T/C [36]: 39.9%

SMILES: CC(C)NCC(C(=O)N1CCN(c2ncnc3c2C(C)CC3O)CC1)c1ccc(Cl)cc1 (stereo unspecified) + CC(Nc1ccc2c(c1)OCCn1cc(N3C(=O)OCC3C(F)F)nc1-2)C(N)=O
- IC50 (second compound 0.00316 µM): 5070 nM
- IC50 (second compound 0.01 µM): 3750 nM
- IC50 (second compound 0.0316 µM): 2480 nM
- IC50 (second compound 0.1 µM): < 31.6 nM
- IC50 (second compound 0.316 µM): < 31.6 nM
- IC50 (second compound 1 µM): < 31.6 nM
- viability, T/C (second compound 0.00316 µM, first compound 0.0316 µM): 76.3%
- viability, T/C (second compound 0.00316 µM, first compound 0.1 µM): 77.9%
- viability, T/C (second compound 0.00316 µM, first compound 0.316 µM): 69.5%
- viability, T/C (second compound 0.00316 µM, first compound 1 µM): 72.3%
- viability, T/C (second compound 0.00316 µM, first compound 3.16 µM): 63.6%
- viability, T/C (second compound 0.00316 µM, first compound 10 µM): 31.3%
- viability, T/C (second compound 0.01 µM, first compound 0.0316 µM): 88.2%
- viability, T/C (second compound 0.01 µM, first compound 0.1 µM): 94.7%
- viability, T/C (second compound 0.01 µM, first compound 0.316 µM): 73.6%
- viability, T/C (second compound 0.01 µM, first compound 1 µM): 80.1%
- viability, T/C (second compound 0.01 µM, first compound 3.16 µM): 54.7%
- viability, T/C (second compound 0.01 µM, first compound 10 µM): 18.2%
- viability, T/C [1]: 62.3%
- viability, T/C [2]: 56.3%
- viability, T/C [3]: 50.5%
- viability, T/C [4]: 60.8%
- viability, T/C [5]: 47.3%
- viability, T/C [6]: 13.3%
- viability, T/C [7]: 48.6%
- viability, T/C [8]: 28.7%
- viability, T/C [9]: 34.8%
- viability, T/C [10]: 31.8%
- viability, T/C [11]: 24.7%
- viability, T/C [12]: 12.6%
- viability, T/C [13]: 21%
- viability, T/C [14]: 21.4%
- viability, T/C [15]: 18.4%
- viability, T/C [16]: 18.7%
- viability, T/C [17]: 19%
- viability, T/C [18]: 10.6%
- viability, T/C [19]: 18.1%
- viability, T/C [20]: 15.9%
- viability, T/C [21]: 13.8%
- viability, T/C [22]: 18.4%
- viability, T/C [23]: 17.1%
- viability, T/C [24]: 10.8%

SMILES: Cn1ncc(Cl)c1-c1cc(C(=O)NC(CN)Cc2cccc(F)c2)sc1Cl (stereo unspecified) + Cc1nc(NC(=O)N2CCCC2C(N)=O)sc1-c1ccnc(C(C)(C)C(F)(F)F)c1
- IC50 (second compound 0.0316 µM): 579 nM
- IC50 (second compound 0.1 µM): 400 nM
- IC50 (second compound 0.316 µM): < 31.6 nM
- IC50 (second compound 1 µM): < 31.6 nM
- IC50 (second compound 3.16 µM): < 31.6 nM
- IC50 (second compound 10 µM): < 31.6 nM
- viability, T/C [1]: 83.5%
- viability, T/C [2]: 67.3%
- viability, T/C [3]: 71.8%
- viability, T/C [4]: 31.2%
- viability, T/C [5]: 18.6%
- viability, T/C [6]: 6.47%
- viability, T/C [7]: 58.5%
- viability, T/C [8]: 82%
- viability, T/C [9]: 51.6%
- viability, T/C [10]: 28.1%
- viability, T/C [11]: 21.7%
- viability, T/C [12]: 6.76%
- viability, T/C [13]: 42.9%
- viability, T/C [14]: 41%
- viability, T/C [15]: 38%
- viability, T/C [16]: 27.2%
- viability, T/C [17]: 14.2%
- viability, T/C [18]: 7.01%
- viability, T/C [19]: 31.9%
- viability, T/C [20]: 34.8%
- viability, T/C [21]: 29.2%
- viability, T/C [22]: 19.1%
- viability, T/C [23]: 16.2%
- viability, T/C [24]: 4.12%
- viability, T/C [25]: 15.7%
- viability, T/C [26]: 14.7%
- viability, T/C [27]: 15.8%
- viability, T/C [28]: 16.9%
- viability, T/C [29]: 11.9%
- viability, T/C [30]: 1.21%
- viability, T/C [31]: 9.08%
- viability, T/C [32]: 7.96%
- viability, T/C [33]: 6.42%
- viability, T/C [34]: 8.32%
- viability, T/C [35]: 4.5%
- viability, T/C [36]: 0.47%
